Reference: patent US8883745B2, “C—glycolipids with enhanced Th-1 profile” (New York University, priority 2006, dated 2014)

Key:
Type in all cases: in vivo
[1] = system: IL-4; assay: IL-4 levels in sera upon i.v. glycolipid administration to C57BL/6 mice (ELISA); set-up: unit not given here
Method: (§1) Five- to six-week-old female C57BL/6 mice and BALB/c mice were purchased from Taconic. Each glycolipid was stored at 1 mg/ml in 100% DMSO. Mice were injected intravenously with 1 μg of each glyocolipid diluted in 200 μL sterile phosphate buffered saline (PBS). At indicated time points, sera were collected from each animal, and concentrations of IFN-γ, IL-4, and IL-12 in the sera were evaluated by enzyme-linked immunosorbent assay (ELISA). Serum concentrations of IFN-γ, IL-4, and IL-12 were evaluated using an ELISA kit (eBioscience, San Diego, Calif.). Briefly, 96 well flat-bottom ELISA plates (NUNC) were coated with capture antibody according to the manufacture's recommendation and incubated overnight at 4° C. The plates were washed with PBS+0.05% Tween 20 (PBS-T), then incubated with manufacturer provided blocking solution for 1 hr at room temperature to block non-specific binding sites. After washing with PBS-T, sera diluted 1:10 was added to the wells and incubated for 2 hrs at room temperature. Plates were then incubated at room temperature for 1 hr with biotintylated detection antibody, washed, incubated with avidin conjugated to horse radish peroxidase (HRP) for 30 min at room temperature, washed, and finally incubated with tetramethylbenzidine substrate solution in the dark for 10 minutes at room temperature. The antibodies, avidin-HRP, and substrate solution were all diluted according to the manufacture's recommendation. Reactions were stopped with 2.0N sulfuric acid and the cytokine concentration in each well was determined by comparing the absorbance at 450 nm in each well to known standards. The levels of Th1- and Th2-type cytokines were determined in two different genetic backgrounds, i.e., in C57BL/6 mice and BALB/c mice. The following compounds were administered: A=compound (A-1 trans-conformer), B=compound (A-2), C=compound (A-3), D=compound (A-4), E=compound (A-5), Z=control (PBS alone), CRONY=α-C-GalCer, KRN=α-GalCer, GCK109 (A-1 trans-conformer), GCK151 (A-1 cis-conformer), GCK152 (A-7). The levels of cytokines were measured at 0, 2, 6, 12, 24, 48, and 72 hours after the compound administration. The levels of Th1-type cytokines IFN-γ and IL-12 are summarized in FIGS. 2A-C and 3A-C, respectively. Table 7 provides IFN-γ/IL-4 and IL-12/IL-4 ratios for various compounds, which can be used as indicators of their ability to selectively stimulate Th1-type immune responses.

[2] = system: IFN-γ; assay: IFN-γ levels in sera upon i.v. glycolipid administration to C57BL/6 mice (ELISA); set-up: IFN-γ levels, test 1 / IFN-γ levels, test 2 / IFN-γ levels, average / IFN-γ levels, Total / IFN-γ (B6): unit not given here
Method: as §1

[3] = system: IL-4; assay: IL-4 levels in sera upon i.v. glycolipid administration to BALB/c mice (ELISA); set-up: unit not given here
Method: as §1

[4] = system: IL-12; assay: IL-12 levels in sera upon i.v. glycolipid administration to BALB/c mice (ELISA); set-up: IL-12 levels, test 1 / IL-12 levels, test 2 / IL-12 levels, average / IL-12 levels, Total: unit not given here
Method: as §1

## CCCCCCCCCCCCCC[C@@H](O)[C@@H](O)[C@H](CC[C@H]1O[C@H](CO)[C@H](O)[C@H](O)[C@H]1O)NC(=O)CCCCCCCCCCCCCCCCCCCOCCCCC [A-5]
[1]; hour 0
  IL-4 level, average: 46
  IL-4 level, test 1: 46
  IL-4 level, test 2: 46
[1]; hour 2
  IL-4 level, average: 308
  IL-4 level, test 1: 283
  IL-4 level, test 2: 333
[1]; hour 6
  IL-4 level, average: 89
  IL-4 level, test 1: 75
  IL-4 level, test 2: 103
[1]; hour 12
  IL-4 level, average: 45
  IL-4 level, test 1: 42
  IL-4 level, test 2: 48
[1]; hour 24
  IL-4 level, average: 50
  IL-4 level, test 1: 46
  IL-4 level, test 2: 54
[1]; hour 48
  IL-4 level, average: 46
  IL-4 level, test 1: 44
  IL-4 level, test 2: 48
[1]; hour 72
  IL-4 level, average: 64.5
  IL-4 level, test 1: 69
  IL-4 level, test 2: 60
[1]; total over hours 0-72
  IL-4 level, Total: 649
[2]; C57BL/6, ratio calculated from Tables 1-6
  IFN-γ/IL-4 (B6): 18
[2]; C57BL/6, serum, hour 0
  IFN-γ levels, average: 31
  IFN-γ levels, test 1: 31
  IFN-γ levels, test 2: 31
[2]; C57BL/6, serum, hour 2
  IFN-γ levels, average: 112.5
  IFN-γ levels, test 1: 130
  IFN-γ levels, test 2: 95
[2]; C57BL/6, serum, hour 6
  IFN-γ levels, average: 929
  IFN-γ levels, test 1: 930
  IFN-γ levels, test 2: 928
[2]; C57BL/6, serum, hour 12
  IFN-γ levels, average: 2108
  IFN-γ levels, test 1: 2215
  IFN-γ levels, test 2: 2001
[2]; C57BL/6, serum, hour 24
  IFN-γ levels, average: 8196.5
  IFN-γ levels, test 1: 7680
  IFN-γ levels, test 2: 8713
[2]; C57BL/6, serum, hour 48
  IFN-γ levels, average: 295
  IFN-γ levels, test 1: 249
  IFN-γ levels, test 2: 341
[2]; C57BL/6, serum, hour 72
  IFN-γ levels, average: 102
  IFN-γ levels, test 1: 101
  IFN-γ levels, test 2: 103
[2]; C57BL/6, serum, total over hours 0-72
  IFN-γ levels, Total: 11775
[3]; hour 0
  IL-4 level, average: 27
  IL-4 level, test 1: 27
  IL-4 level, test 2: 27
[3]; hour 2
  IL-4 level, average: 156
  IL-4 level, test 1: 122
  IL-4 level, test 2: 190
[3]; hour 6
  IL-4 level, average: 67.5
  IL-4 level, test 1: 60
  IL-4 level, test 2: 75
[3]; hour 12
  IL-4 level, average: 45.5
  IL-4 level, test 1: 48
  IL-4 level, test 2: 43
[3]; hour 24
  IL-4 level, average: 41
  IL-4 level, test 1: 39
  IL-4 level, test 2: 43
[3]; hour 48
  IL-4 level, average: 40
  IL-4 level, test 1: 41
  IL-4 level, test 2: 39
[3]; hour 72
  IL-4 level, average: 3.4
  IL-4 level, test 1: 3.4
  IL-4 level, test 2: 3.4
[3]; total over hours 0-72
  IL-4 level, Total: 382
[4]; ratio calculated from Tables 1-6
  IL-12/IL-4 (BALB/c): 13
[4]; serum, hour 0
  IL-12 levels, average: 5
  IL-12 levels, test 1: 5
  IL-12 levels, test 2: 5
[4]; serum, hour 2
  IL-12 levels, average: 153.5
  IL-12 levels, test 1: 74
  IL-12 levels, test 2: 233
[4]; serum, hour 6
  IL-12 levels, average: 1668
  IL-12 levels, test 1: 1587
  IL-12 levels, test 2: 1749
[4]; serum, hour 12
  IL-12 levels, average: 2806.5
  IL-12 levels, test 1: 2246
  IL-12 levels, test 2: 3367
[4]; serum, hour 24
  IL-12 levels, average: 141
  IL-12 levels, test 1: 110
  IL-12 levels, test 2: 172
[4]; serum, hour 48
  IL-12 levels, average: 97
  IL-12 levels, test 1: 0
  IL-12 levels, test 2: 194
[4]; serum, hour 72
  IL-12 levels, average: 76.5
  IL-12 levels, test 1: 153
  IL-12 levels, test 2: 0
[4]; serum, total over hours 0-72
  IL-12 levels, Total: 4949
